Changes are numbered by the printed parent chain. Activity calls are given as the source filed them. The rule behind the calls is not given here.
How the values were obtained:
NCI-H460 [1] = assay: Induction of apoptosis in human NCI-H460 cells expressing siHSF1 assessed as cleaved PARP and caspase 3 level up to 20 uM after 12 hrs; assay type: functional, cell-based
[2] = target: T1, Heat shock factor protein 1 (Homo sapiens) (UniProt Q00613); assay: Inhibition of HSP1 activity in human NCI-H460 cells assessed as reduction of HSP27 mRNA expression at 20 uM up to 24 hrs by qRT-PCR analysis; assay type: cell-based
T1 sequence (whole entry): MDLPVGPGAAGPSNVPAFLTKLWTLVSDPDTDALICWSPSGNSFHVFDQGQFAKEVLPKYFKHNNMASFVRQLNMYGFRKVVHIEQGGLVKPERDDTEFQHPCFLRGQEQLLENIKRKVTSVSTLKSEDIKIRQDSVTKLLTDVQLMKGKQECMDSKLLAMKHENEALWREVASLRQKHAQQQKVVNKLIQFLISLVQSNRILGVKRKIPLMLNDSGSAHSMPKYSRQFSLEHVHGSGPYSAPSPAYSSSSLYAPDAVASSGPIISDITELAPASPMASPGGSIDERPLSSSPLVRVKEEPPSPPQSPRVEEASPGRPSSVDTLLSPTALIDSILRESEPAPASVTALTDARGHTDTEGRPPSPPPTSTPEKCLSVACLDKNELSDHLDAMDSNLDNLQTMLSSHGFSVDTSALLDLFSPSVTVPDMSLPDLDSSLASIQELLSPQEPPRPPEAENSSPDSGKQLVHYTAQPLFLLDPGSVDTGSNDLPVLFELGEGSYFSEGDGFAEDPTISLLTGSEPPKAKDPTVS

NCI-H460 [3] = assay: Induction of apoptosis in human NCI-H460 cells assessed as cyclin D and cyclin E level at 20 uM; assay type: functional, cell-based; details: TDE = time-dependent effect
NCI-H460 [4] = assay: Cytotoxicity against human NCI-H460 cells expressing siHSF1 up to 100 uM after 24 hrs by MTT assay; assay type: functional, cell-based
[5] = target: T2, Heat shock factor protein 1 (Mus musculus) (UniProt P38532); assay: Inhibition of HSP1 activity in mouse MEF assessed as reduction of hsp25 promoter activity at 5 to 100 uM after 12 hrs by luciferase reporter gene assay
T2 sequence (whole entry): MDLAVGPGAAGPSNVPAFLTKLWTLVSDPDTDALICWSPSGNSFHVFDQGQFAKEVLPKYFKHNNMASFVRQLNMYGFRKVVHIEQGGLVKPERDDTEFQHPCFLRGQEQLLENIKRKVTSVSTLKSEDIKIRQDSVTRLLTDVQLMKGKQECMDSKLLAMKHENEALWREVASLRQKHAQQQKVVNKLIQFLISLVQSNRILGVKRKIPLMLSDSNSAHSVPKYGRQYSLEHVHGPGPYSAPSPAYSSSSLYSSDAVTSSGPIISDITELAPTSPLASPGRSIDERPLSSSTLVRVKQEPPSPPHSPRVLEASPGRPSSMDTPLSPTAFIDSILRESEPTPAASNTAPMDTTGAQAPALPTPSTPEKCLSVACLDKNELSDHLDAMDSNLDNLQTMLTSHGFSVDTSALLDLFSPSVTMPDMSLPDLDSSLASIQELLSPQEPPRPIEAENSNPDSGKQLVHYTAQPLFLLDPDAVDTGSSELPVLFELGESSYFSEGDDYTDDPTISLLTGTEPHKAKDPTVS

[6] = target: T1, Heat shock factor protein 1 (Homo sapiens); assay: Induction of HSP1 dephosphorylation at S230, S303/307, and S326 in human NCI-H460 cells after 24 hrs by Western blot analysis; assay type: cell-based
[7] = target: T1, Heat shock factor protein 1 (Homo sapiens); assay: Inhibition of HSP1 activity in human NCI-H460 cells assessed as reduction of HSP1 mRNA expression at 1 to 20 uM after 12 hrs by qRT-PCR analysis; assay type: cell-based
[8] = target: T1, Heat shock factor protein 1 (Homo sapiens); assay: Inhibition of HSP1 activity in human NCI-H460 cells assessed as reduction of HSP70 protein expression at 20 uM by Western blot analysis; assay type: cell-based; details: TDE = time-dependent effect
[9] = target: T1, Heat shock factor protein 1 (Homo sapiens); assay: Inhibition of HSP1 activity in human NCI-H460 cells assessed as reduction of HSP70 mRNA expression at 1 to 20 uM after 12 hrs by qRT-PCR analysis; assay type: cell-based
NCI-H460 [10] = assay: Cytotoxicity against HSF1 deficient human NCI-H460 cells up to 100 uM after 24 hrs by MTT assay; assay type: functional, cell-based
[11] = target: T1, Heat shock factor protein 1 (Homo sapiens); assay: Inhibition of HSP1 activity in human NCI-H460 cells assessed as reduction of HSP25 protein expression after 12 hrs by Western blot analysis; assay type: cell-based
NCI-H460 [12] = assay: Induction of apoptosis in human NCI-H460 cells assessed as cleaved PARP and caspase 3 level at 20 uM; assay type: functional, cell-based; details: TDE = time-dependent effect
[13] = target: T2, Heat shock factor protein 1 (Mus musculus); assay: Inhibition of HSP1 activity in mouse MEF assessed as reduction of hsp70 promoter activity at 5 to 100 uM after 12 hrs by luciferase reporter gene assay
[14] = target: T1, Heat shock factor protein 1 (Homo sapiens); assay: Inhibition of HSP1 activity in human NCI-H460 cells assessed as reduction of HSP1 mRNA expression at 20 uM up to 24 hrs by qRT-PCR analysis; assay type: cell-based
[15] = target: T1, Heat shock factor protein 1 (Homo sapiens); assay: Inhibition of HSP1 activity in human NCI-H460 cells assessed as reduction of HSP70 mRNA expression at 20 uM up to 24 hrs by qRT-PCR analysis; assay type: cell-based
NCI-H460 [16] = assay: Induction of apoptosis in human NCI-H460 cells assessed as cyclin D and cyclin E level after 12 hrs; assay type: functional, cell-based
[17] = target: T1, Heat shock factor protein 1 (Homo sapiens); assay: Inhibition of HSP1 activity in human NCI-H460 cells assessed as reduction of HSP25 protein expression at 20 uM by Western blot analysis; assay type: cell-based; details: TDE = time-dependent effect
[18] = tested on: T3, Heat shock factor protein 1 (Homo sapiens), Q00613 [S326A]; assay: Reduction of HSP1 dephosphorylated at S326A mutant stability in human NCI-H460 cells up to 7.5 hrs by Western blot analysis in presence of cyclohexamide; assay type: cell-based
T3 sequence (whole entry): T1 sequence (whole entry) with S326A

[19] = tested on: T4, Heat shock factor protein 1 (Homo sapiens), Q00613 [S326E]; assay: Reduction of HSP1 phosphorylated at S326E mutant stability in human NCI-H460 cells up to 7.5 hrs by Western blot analysis in presence of cyclohexamide; assay type: cell-based
T4 sequence (whole entry): T1 sequence (whole entry) with S326E

[20] = target: T1, Heat shock factor protein 1 (Homo sapiens); assay: Inhibition of HSP1 activity in human NCI-H460 cells assessed as reduction of HSP27 mRNA expression at 1 to 20 uM after 12 hrs by qRT-PCR analysis; assay type: cell-based
[21] = target: T1, Heat shock factor protein 1 (Homo sapiens); assay: Inhibition of HSP1 activity in human NCI-H460 cells assessed as reduction of HSP1 protein expression after 12 hrs by Western blot analysis; assay type: cell-based
[22] = target: T1, Heat shock factor protein 1 (Homo sapiens); assay: Inhibition of HSP1 activity in human NCI-H460 cells assessed as reduction of hsp25 promoter activity after 12 hrs by luciferase reporter gene assay; assay type: cell-based
[23] = target: T1, Heat shock factor protein 1 (Homo sapiens); assay: Reduction of HSP1 stability in human NCI-H460 cells assessed as protein degradation at 10 uM up to 9 hrs by Western blot analysis in presence of cyclohexamide; assay type: cell-based
NCI-H460 [24] = assay: Cytotoxicity against human NCI-H460 cells up to 100 uM after 24 hrs by MTT assay; assay type: functional, cell-based
[25] = target: T1, Heat shock factor protein 1 (Homo sapiens); assay: Inhibition of HSP1 activity in human NCI-H460 cells assessed as reduction of HSP1 protein expression at 20 uM by Western blot analysis; assay type: cell-based; details: TDE = time-dependent effect
NCI-H460 [26] = assay: Induction of apoptosis in human NCI-H460 cells assessed as cleaved PARP and caspase 3 level after 12 hrs; assay type: functional, cell-based
[27] = target: T1, Heat shock factor protein 1 (Homo sapiens); assay: Inhibition of HSP1 activity in human NCI-H460 cells assessed as reduction of HSP70 protein expression after 12 hrs by Western blot analysis; assay type: cell-based
[28] = target: T1, Heat shock factor protein 1 (Homo sapiens); assay: Inhibition of HSP1 activity in human NCI-H460 cells assessed as reduction of hsp70 promoter activity after 12 hrs by luciferase reporter gene assay; assay type: cell-based
[29] = target: T1, Heat shock factor protein 1 (Homo sapiens); assay: Reduction of HSP1 stability in human NCI-H460 cells assessed as protein degradation at 10 ug/mL up to 9 hrs by Western blot analysis; assay type: cell-based

Oc1ccc(Cc2ccc(O)c(Cc3ccc(O)cc3)c2)cc1
Activity (NCI-H460 [1]): Active
inhibition [2]: Active
Activity (NCI-H460 [3]): tde
Activity (NCI-H460 [4]): inactive
inhibition [5]: inactive
Activity [6]: Dose-dependent effect
inhibition [7]: inactive
inhibition [8]: tde
inhibition [9]: Active
Activity (NCI-H460 [10]): Active
inhibition [11]: Dose-dependent effect
Activity (NCI-H460 [12]): tde
inhibition [13]: inactive
inhibition [14]: inactive
inhibition [15]: Active
Activity (NCI-H460 [16]): Dose-dependent effect
inhibition [17]: tde
Activity [18]: Active
Activity [19]: Active
inhibition [20]: Active
inhibition [21]: Dose-dependent effect
inhibition [22]: Dose-dependent effect
Activity [23]: Active
Activity (NCI-H460 [24]): Active
inhibition [25]: tde
Activity (NCI-H460 [26]): Dose-dependent effect
inhibition [27]: Dose-dependent effect
inhibition [28]: Dose-dependent effect

C[C@@H]1C[C@@H]([C@H](O)CC2CC(=O)NC(=O)C2)C(=O)[C@@H](C)C1
Activity [29]: Active

— ChEMBL document CHEMBL3286220, “2,4-Bis(4-hydroxybenzyl)phenol inhibits heat shock transcription factor 1 and sensitizes lung cancer cells to conventional anticancer modalities” (J Nat Prod, 2014)
